Data on four compounds can be found in ChEMBL document CHEMBL5726701, “Pyrazine derivatives as phosphatidylinositol 3-kinase inhibitors” (2018).

Sequence of Phosphatidylinositol 3-kinase catalytic subunit type 3 (Q8NEB9 whole entry): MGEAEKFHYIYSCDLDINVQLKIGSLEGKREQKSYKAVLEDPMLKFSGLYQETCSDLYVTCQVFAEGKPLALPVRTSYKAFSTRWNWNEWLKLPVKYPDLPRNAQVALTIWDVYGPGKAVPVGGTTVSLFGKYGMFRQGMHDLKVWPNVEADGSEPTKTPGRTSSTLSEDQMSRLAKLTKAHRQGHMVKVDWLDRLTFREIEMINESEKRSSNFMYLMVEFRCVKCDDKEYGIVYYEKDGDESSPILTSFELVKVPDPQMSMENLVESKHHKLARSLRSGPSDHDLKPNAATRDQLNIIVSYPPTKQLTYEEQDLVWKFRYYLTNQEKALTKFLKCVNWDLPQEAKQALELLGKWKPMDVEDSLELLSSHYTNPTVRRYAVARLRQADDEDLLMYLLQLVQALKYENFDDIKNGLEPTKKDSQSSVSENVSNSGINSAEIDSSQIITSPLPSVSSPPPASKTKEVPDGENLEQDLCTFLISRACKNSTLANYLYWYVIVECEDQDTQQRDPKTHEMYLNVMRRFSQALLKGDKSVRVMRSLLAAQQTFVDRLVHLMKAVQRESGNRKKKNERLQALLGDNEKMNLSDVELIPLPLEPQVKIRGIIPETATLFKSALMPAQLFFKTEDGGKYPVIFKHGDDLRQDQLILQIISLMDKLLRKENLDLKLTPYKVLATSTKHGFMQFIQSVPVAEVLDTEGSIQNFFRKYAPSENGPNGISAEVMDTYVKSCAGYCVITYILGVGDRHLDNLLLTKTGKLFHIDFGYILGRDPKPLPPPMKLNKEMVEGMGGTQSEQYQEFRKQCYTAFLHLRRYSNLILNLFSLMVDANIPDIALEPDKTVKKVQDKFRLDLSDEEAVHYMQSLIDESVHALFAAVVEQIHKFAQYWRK

The assay concerns the target Phosphatidylinositol 3-kinase catalytic subunit type 3 (Homo sapiens, UniProt Q8NEB9). In words: Kinase Glo Luminescent Kinase Assay: PI 3-Kinase Alpha (A), Pb 3-Kinase Beta (B), Vps34 (C), PI 4-Kinase Beta (D):The luminescence-based ATP detection reagent KinaseGlo was obtained from Promega, (Cat. No. V6714, Lot No. 236161) through Catalys, Wallisellen, Switzerland. L-alpha-phosphatidylinositol (PI, liver, bovine) was obtained from Avanti Polar Lipid (Cat. No. 840042C, Lot#LPI-274), Phosphatidylinositol-4,5-bisphosphate (PIP(4,5)2) was also obtained from Avanti Polar Lipid (Cat. No. 840046X). L-α-Phosphatidylserine (PS) was obtained from Avanti Polar Lipid (Cat. No. 840032C), n-Octylglucoside from Avanti Polar Lipid (Cat. No. 10634425001). Luminescence is a well established readout to determine ATP concentrations and can thus be used to follow the activity of many kinases regardless of their substrate. The Kinase Glo Luminescent Kinase Assay (Promega, Madison/WI, USA) is a homogeneous HTS method of measuring kinase activity by quantifying the amount of ATP remaining in solution following a kinase reaction.
The compound `Cc1ccc(S(=O)(=O)N[C@H]2CC[C@H](O)CC2)cc1-c1cncc(-c2csc(CN3CCOCC3)c2)n1` gave an IC50 of 8.6 µM.

`Cc1ccc(S(=O)(=O)NC2CC3(CC(O)C3)C2)cc1-c1cncc(-c2cn(C)nc2C)n1` (centres undefined) displayed an IC50 of 9.4 µM. `Cc1cc(-c2cncc(-c3cc(S(=O)(=O)NC[C@H]4C[C@@H](O)C4)ccc3C)n2)n(C)n1` displayed a half-inhibitory concentration (IC50) of 2.45 µM. For `Cc1ccc(S(=O)(=O)NC[C@H]2C[C@@H](O)C2)cc1-c1cncc(-c2cn(C)nc2C)n1`, the IC50 was 4.4 µM.

A word on the IC50: it is the concentration needed to halve the response being measured. A higher IC50 goes with a need for much substance.
